Assay results as given in article PMC8482274, “Inadequate Cerebrospinal Fluid Concentrations of Available Salvage Agents Further Impedes the Optimal Treatment of Multidrug-Resistant Enterococcus faecium Meningitis and Bacteremia” (Infectious Disease Reports, 2021).
Read-outs that look alike come from different tables or passages of the source. Blank lines part the entries; values can stand above or below the compound they belong to. Numbered stars: 1 amine (or outer) side, 2 acyl side, 3 side chain; on linkers, the order of the positions; unused ones are H or OH. Bridge positions count the residues as written; N and C are the ends. Square brackets hold non-standard residues; d marks the D form. Peptide text beside a SMILES is read from it. * marks the point of attachment. X1 = O=C1C[C@@H](C(=O)[*:2])N([*:1])C[C@H]1CS[C@@H]1CN2CCC1CC2; NMePhe(4-NMe2) = CN[C@@H](Cc1ccc(N(C)C)cc1)C(=O)O; Picolinoyl(3-OH) = O=C(c1ncccc1O)*; Phg = N[C@H](C(=O)O)c1ccccc1; dAbu = CC[C@@H](N)C(=O)O

What was measured:
[1] = cited from earlier work
[2] = tested on: VREf isolates; assay: microbe, parasite or virus in culture; details: for MIC: modal MIC of triplicate, CLSI guidelines
Procedure: Initial organism identification and susceptibility determination were performed via MALDI-TOF MS (Bruker Daltonics, Billerica, MA, USA) and MicroScan Walkaway (Beckman Coulter, Brea, CA), respectively, in the clinical microbiology laboratory. Pure colonies of the VREf isolates cultured from the CSF on hospital days 33 and 57 and from blood on days 35 and 52 were sub-cultured to BD BBL chocolate II agar slants (Becton, Dickinson and Company, Sparks, MD, USA) and shipped immediately overnight to the research laboratory where all subsequent testing was performed. Identification and resistance marker detection was confirmed via the Verigene Gram-positive blood culture assay (Luminex, Northbrook, IL, USA).
Minimum inhibitory concentrations were determined in triplicate according to CLSI guidelines. Modal MIC values are reported.

[3] = CSF drug concentrations from day 57 lumbar puncture by LC-MS/MS; details: one patient, systemic dosing at steady state, LLOQ 0.001 mg/L, mean of two CSF tubes, time after last dose: gentamicin 77:30, oritavancin 46:54, tigecycline 8:27, tedizolid 8:25, quinupristin/dalfopristin 2:00 h:m
Procedure: (§1) CSF samples were immediately frozen at −80 °C and shipped overnight on dry ice. […] Results are presented as the mean (±SD) of the two measured CSF concentrations. Additionally, estimated corresponding unbound plasma concentrations at the time of CSF collection were extrapolated for each agent from published pharmacokinetic data in order to establish an estimate of the degree of CSF/plasma penetration. This % CSF/plasma penetration was then utilized to predict the maximum post-dose CSF concentration on the basis of the peak free plasma concentration (fCmax) and the time of fCmax (Tmax) of each agent. Finally, these predictions were evaluated against published data, all of which were restricted to animal studies except for tigecycline.

[4] = Estimated unbound plasma concentration, CSF/plasma penetration and projected maximum CSF concentration extrapolated from published pharmacokinetic data; details: for CSF/plasma ratio: this patient
Procedure: as §1

[5] = tested on: VREf isolate cultured from the CSF on hospital day 33; assay: Time-kill experiments; type: cell-based, Enterococcus faecium; details: at mean measured CSF concentration; triplicate
Procedure: Next, the 5 drugs were tested in combination at their respective extrapolated maximal CSF concentration as described.

[6] = design: method as in PMID 11408247; details: animal study; cited from earlier work
[7] = cited from earlier work; remark: listed apart in the source
Excerpt: Almost exactly 2 days had elapsed between the time of the patient’s last oritavancin dose and the time of CSF collection.

[8] = design: method as in PMID 31295511; details: average in uninfected rats; cited from earlier work
[9] = design: method as in PMID 16982782, PMID 17043116, PMID 21585240, PMID 25216547; details: cited from earlier work
[10] = cited from earlier work; remark: listed apart in the source
[11] = Enterococcus faecium, VREf isolate from CSF, hospital day 57
[12] = Enterococcus faecium, VREf isolate from blood, hospital day 52
[13] = VREf isolate from CSF, hospital day 57, CLSI M100-S30 unless footnoted
[14] = VREf isolate from blood, hospital day 52, CLSI M100-S30 unless footnoted
[15] = Enterococcus faecium, VREf isolate from CSF, hospital day 33
[16] = Enterococcus faecium, VREf isolate from blood, hospital day 35

Structure (SMILES): CCN(CC)CCS(=O)(=O)[C@@H]1CCN2C(=O)c3coc(n3)CC(=O)C[C@H](O)/C=C(C)/C=C/CNC(=O)/C=C/[C@@H](C)[C@@H](C(C)C)OC(=O)[C@@H]12 [Dalfopristin]
Published % CSF/Plasma Penetration ([1]; rabbit pneumococcal meningitis data): 0 [23, 27] %

MIC [2, 11]: 0.12 µg/mL
MIC [2, 12]: 0.12 µg/mL
Structure (SMILES): CN(C)[C@@H]1C(O)=C(C(N)=O)C(=O)[C@@]2(O)C(O)=C3C(=O)c4c(O)c(NC(=O)CN5CCCC5)cc(F)c4C[C@H]3C[C@@H]12 [Eravacycline]
Interpretive Category [2, 13]: S
Interpretive Category [2, 14]: S
CNS penetration ([1]; rabbits): virtually zero

Structure (SMILES): CN[C@H](CC(C)C)C(=O)N[C@H]1C(=O)N[C@@H](CC(N)=O)C(=O)N[C@H]2C(=O)N[C@H]3C(=O)N[C@H](C(=O)N[C@H](C(=O)O)c4cc(O)cc(O)c4-c4cc3ccc4O)[C@H](O[C@H]3C[C@](C)(N)[C@@H](O)[C@H](C)O3)c3ccc(c(Cl)c3)Oc3cc2cc(c3O[C@@H]2O[C@H](CO)[C@@H](O)[C@H](O)[C@H]2O[C@H]2C[C@](C)(NCc3ccc(-c4ccc(Cl)cc4)cc3)[C@@H](O)[C@H](C)O2)Oc2ccc(cc2Cl)[C@H]1O [Oritavancin]
MIC ([2]; VREf isolate from CSF, hospital day 33): 0.25 µg/mL
MIC ([2]; VREf isolate from CSF, hospital day 57): 0.25 µg/mL
MIC ([2]; VREf isolate from blood, hospital day 35): 0.25 µg/mL
MIC ([2]; VREf isolate from blood, hospital day 52): 0.25 µg/mL
Mean (±SD) Measured CSF Concentration [3]: 0.013 ± 0.005 mg/L
projected maximal CSF concentration at plasma Tmax ([4]; point estimate): 0.014 mg/L
CSF/plasma ratio ([4]; point estimate): 0.07%
bacterial growth (increase) at 24 h compared to the starting inoculum [5]: 0.69 log10 CFU/mL
Published % CSF/Plasma Penetration [6]: 1–5 [26] %
fCmax ([7]; plasma, after a 1200 mg dose, published pharmacokinetic data, ref not given): 20.7 mg/L
half-life ([7]; plasma, published pharmacokinetic data, ref not given): 245 h

Structure (SMILES): CC[C@H]1NC(=O)[C@@H](NC(=O)c2ncccc2O)[C@@H](C)OC(=O)[C@H](c2ccccc2)NC(=O)[C@@H]2CC(=O)[C@H](CS[C@@H]3CN4CCC3CC4)CN2C(=O)[C@H](Cc2ccc(N(C)C)cc2)N(C)C(=O)[C@@H]2CCCN2C1=O [Quinupristin] ({Picolinoyl(3-OH)}-T[dAbu]P[NMePhe(4-NMe2)][X1][Phg]; ester 1-C)
Published % CSF/Plasma Penetration ([1]; rabbit, in vivo): 0 [23, 27] %

Structure (SMILES): Cn1nnc(-c2ccc(-c3ccc(N4C[C@H](CO)OC4=O)cc3F)cn2)n1 [Tedizolid]
MIC [2, 15]: 2 µg/mL
MIC [2, 11]: 2 µg/mL
MIC [2, 16]: 2 µg/mL
MIC [2, 12]: 2 µg/mL
projected maximal CSF concentration at plasma Tmax ([4]; in vivo): roughly 0.3 mg/L
CSF/plasma ratio ([4]; point estimate): approximately 50%
Published % CSF/Plasma Penetration [8]: 2.2 [16] %
half-life ([7]; in vivo, iv): 12 h
steady-state plasma fCmax ([7]; in vivo, iv): 0.6 mg/L
protein binding [9]: 80%

Structure (SMILES): CN(C)c1cc(NC(=O)CNC(C)(C)C)c(O)c2c1C[C@H]1C[C@H]3[C@H](N(C)C)C(O)=C(C(N)=O)C(=O)[C@@]3(O)C(O)=C1C2=O [Tigecycline]
MIC [2, 15]: 0.25 µg/mL
MIC [2, 11]: 0.25 µg/mL
MIC [2, 16]: 0.25 µg/mL
MIC [2, 12]: 0.25 µg/mL
Interpretive Category ([2]; VREf isolate from CSF, hospital day 33, CLSI M100-S30 unless footnoted (b: CLSI vancomycin-susceptible E. faecalis; c: FDA E. faecalis; d: EUCAST v.10.0 E. faecium)): S
Interpretive Category [2, 13]: S
Interpretive Category ([2]; VREf isolate from blood, hospital day 35, CLSI M100-S30 unless footnoted): S
Interpretive Category [2, 14]: S
projected maximal CSF concentration at plasma Tmax ([4]; in vivo): approximately 0.197 mg/L
CSF/plasma ratio ([4]; point estimate): 65.5%
half-life ([7]; in vivo): ≈ 30 h
penetration ratios ([10]; a patient with cerebritis due to Acinetobacter): 7–36%
Published % CSF/Plasma Penetration ([10]; human, in vivo): 5–41 [21, 22] %
